Test results: patent US9744212B2, “Galectin-3C combination therapy for human cancer” (Texas Tech University System, priority 2011, dated 2017)

How the values were obtained:
HUVEC [1] = experiment: Vascular endothelial cell viability assay; type: cell-based, human
Procedure: FIGS. 4A and 4B are graphs of the data from the vascular endothelial cell viability assay. […] The graphs show mean values and error bars represent 95% C.I. **=ANOVA Tukey's post test p<O.Ol. n.s.=not significant. […] Viability was measured as described for the U266 cells. […] Results obtained from the HUVEC viability studies that were run in triplicate are depicted in FIGS. 4A-B, and are presented as a percentage of control (untreated) cells.
EXAMPLE 3 illustrates Gal-3C inhibits proliferation of MM cells. Cell Proliferation (Viability) Assays. Cell proliferation was assessed with a ViaLight Plus Cell Proliferation and Cytotoxicity BioAssay Kit (Lonza, Walkersville, Md., USA) according to the directions of the manufacturer. In brief, myeloma cells were seeded (8,000 per well) in 50 μL of RPMI-1640 with 10% heat-inactivated FBS (growth medium) in 96-well plates. HUVEC cells were seeded (10,000/well) in 50 μl EGM-2 medium in 96-well plates. Gal-3C (2× concentration) in 50 μL of growth medium was added to triplicate wells and the plate kept at the CO2 incubator at 37° C. for 48 hour. For the ViaLight assay, 50 μL of lysis buffer was added to each well, the plate was incubated for 10 minutes, after which 50 μL of cell lysate from each well was transferred to a solid white Lumitrac-200 plate and 50 μL of reconstituted AMR Plus was added. Luminescence was measured with a 1-s integrated setting in a Berthold luminometer after 2 minutes. With Alamar Blue, 10 μL of reagent was added per well and the plate kept in the CO2 incubator for 4 hours. Fluorescence intensity was measured at 590-nm on a Polarstar Galaxy (BMG Labtech, Cary, N.C.) microplate reader. The blank (growth media with 10 μl Alamar Blue) was subtracted from the raw fluorescence to obtain adjusted fluorescence readings. Triplicate data points were analyzed and the data shown are representative of 3 or more studies.

HUVEC [2] = experiment: HUVEC tubule formation assay on Matrigel with U266 conditioned media; type: cell-based, human; details: 20% V/V conditioned medium of U266 treated 48 h with 10 μg/mL Gal-3C, 5 nM Bor or both; 16-hour incubation
Procedure: HUVEC Tubule Formation Assay. A tubule formation assay was performed in vitro as described (86) to measure angiogenesis. Briefly, growth factor-reduced Matrigel (Becton Dickinson) was allowed to polymerize in the presence of 30 ng/mL recombinant basic fibroblastic growth factor (bFGF; R&D Systems) for 1 hour at 37° C.
FIG. 5 is an image of the results from the In vitro tubule formation assay having 6 regions. Serum-starved HUVEC were allowed to form tubules on a […]™ surface in the presence of VEGF (positive control), EMB-2 medium alone (negative control), or EBM-2 supplemented with 20% V/V U266 conditioned media (c.m.). […] To evaluate the effect of different treatments on the ability of U266 cells to induce angiogenesis, a […]™-based tubule formation assay was performed in the presence of U266 conditioned media as described for the chemotaxis assay. Serum-starved (5×103) HUVEC were seeded on the […]™ surface in 200-μL EBM-2 medium supplemented with 20% V/V conditioned medium. Pictures were taken after 16-hour incubation in 5% CO2 at 37° C. The assay was run in triplicate and representative images are depicted in FIG. 5. As a positive control, EBM-2 medium supplemented with 20 ng/mL VEGF was used.

VEGF = experiment: ELISA of VEGF in U266 cell-conditioned medium; type: cell-based, human; details: 48-hour culture with 10 μg/mL Gal-3C, 5 nM Bor or both
Procedure: (§1) ELISA of VEGF and bFGF Levels. The levels of VEGF and bFGF were measured by direct ELISA as follows. Flat-bottom 96-well polycarbonate plates were coated at 4° C. with 50 μL/well cell culture supernatants diluted 1:25 in carbonate coating buffer (0.1 M NaHCO3, […]) at 4° C. overnight. Standard curves were obtained with purified recombinant human VEGF and bFGF (both from R&D Systems) serially diluted in coating buffer (10-fold serial dilutions from 1,000 to 0 ng/mL). After removing diluted supernatants or standards, and blocking with PBS supplemented with 1% W/V BSA for 1 hour at room temperature, plates were incubated for 1 hour at room temperature with mouse anti-human VEGF or rabbit anti-human bFGF primary antibodies (2 μg/mL in PBS, 50 μL/well Abeam, Mass., USA). Then, plates were washed twice with PBS with 0.025% V/V Tween-20 (300 μL/well) and incubated at room temperature with anti-mouse or anti-rabbit HRP-labeled secondary antibodies (0.2 μg/mL in PBS, 50 μL/well Abeam, Mass., USA) for 1 hour. The plates were washed thrice with PBS containing 0.025% V/V Tween-20 (300 μL/well), the TMB colorimetric substrate (Thermo Fisher Scientific, Waltham, Mass., USA) was added, and after 5 minutes the absorbance was measured (0.1 s) at 450 nm on a Victor 2 multimodal microplate reader (PerkinElmer, Billerica, Mass., USA). All samples were run in triplicates. […]

bFGF = experiment: ELISA of bFGF in U266 cell-conditioned medium; type: cell-based, human; details: 48-hour culture with 10 μg/mL Gal-3C, 5 nM Bor or both
Procedure: as §1

AKT/IKK pathway = experiment: Western blot of proteins in the NF-κB AKT/IKK pathway; type: cell-based; details: U266 and primary human MM cells; Gal-3C 10 μg/ml
Excerpt: EXAMPLE 4 indicates Gal-3C impairs NF-kB activation induced by Bonin U266 cells. Recently, it has been shown that the mechanism of action of Boris more complex than originally thought and can be differ depending on the cell type. […] This effect potentially reduces the therapeutic effect of Bonin MM, because NF-kB activation in plasma cells is associated with anti-apoptotic pathways (91). […] Comparison of NFkB expression by Western blot. […] Equal amounts of lysates of human primary MM and U266 cells and media were fractionated by SDS-PAGE and transferred to nitrocellulose membranes. Primary antibodies were visualized with HRP-coupled goat anti-rabbit or anti-mouse IgGs using an ATK/IKK kit (Cell Signaling Technology, Danvers, Mass.).
Upon IKK-mediated phosphorylation, IKBα dissociates from the NF-kB complex (p50 and p65 proteins). Free NF-kB is then phosphorylated on serine 529 of the p65 subunit and enters the nucleus where it regulates gene transcription.

[3] = tested on: NF-kB (serine 529 phosphorylated p65 subunit); experiment: Quantification of NF-kappaB activation by flow cytometry in U266 cells; type: cell-based, human; details: 48 hours
Procedure: Quantification of NF-kappaB Activation by Flow Cytometry. For measurement of NF-kB activation, 200×10^3 cells were fixed with 2% PFA in ice-cold PBS for 30 minutes. After removal of PFA, cells were permeabilized with 0.3% saponin in PBS on ice for 15 minutes, then washed and resuspended in 50 μL PBS supplemented with 1% BSA. PE-labeled anti-phosphorylated serine 529 p65 antibody (BD Biosciences, San Jose, Calif., USA) or isotype control (final dilution, 1:20) and allowed to incubate on ice in the dark for 30 minutes. Before flow-cytometric analysis cells were washed 3 times in 1-mL cold PBS with 1% BSA.
FIG. 8A is a dot-plot of NF-kB activation in U266 cells. After 48 hours in the presence of indicated treatments, the levels of active NF-KB (serine 529 phosphorylated p65 subunit) were evaluated in U266 cells by flow cytometry.

## CC(C)C[C@H](NC(=O)[C@H](Cc1ccccc1)NC(=O)c1cnccn1)B(O)O [Bor, bortezomib, reference compound]
HUVEC [1]; Bor at the concentration used in HUVEC assays, combined with different concentrations of Gal-3C
  effect on HUVEC viability: did not display any effect
HUVEC [1]; at the concentration used in the chemotaxis and angiogenesis assays (Gal-3C 2 μg/ml, Bor 1 nM), 48 h
  effect on HUVEC viability: had an effect only at a concentration 5-fold higher
HUVEC [1]; at the highest concentrations, 48 h
  effect on HUVEC viability: dramatic inhibition
HUVEC [2]
  potential of U266 cells for induction of angiogenesis (tubule formation): almost completely impaired
VEGF
  VEGF levels in U266 conditioned medium: significantly reduced
bFGF
  bFGF levels in U266 conditioned medium: significantly reduced
AKT/IKK pathway
  P-p65, P-Akt, P-IKKβ and P-IKKα (activation of the AKT/IKK pathway): increased
[3]
  NF-kB activation (phosphorylated active form): activated NF-kB incrementally
